Key:
[1] = test system: Porcine ovarian granulosa cells (POGC); assay: Test Example 2: cell death of terminally differentiated (FSH/LH) POGC on continued culture; assay type: cell-based; conditions: Sus scrofa, 168 h; 3 µM added 4 days after final medium refreshment; observation 7 days after addition; read-out: cells alive
From the text: (§1) The ovarian granulosa cells are cells surrounding an ovum, and proliferate and differentiate by the action of follicle stimulating hormone (FSH) and luteinizing hormone (LH) in response to sexual cycles, during which they acquire a progesterone-producing ability. Unovulatory follicles finally undergo apoptosis and disappear. The differentiation process can be mimicked following to a known method (Endocrinology, Vol. 136, p. 3470, 1995) as shown in the following in vitro experiment. Furthermore, when they are continuously cultured with maintaining final differentiation ability, they are observed to undergo apoptosis as described below. Namely, porcine ovaries were rinsed with PBS buffer, and porcine ovarian granulosa cells (POGC) were collected by aspiration from antral follicles with a syringe. Cell fraction was recovered as a precipitate by centrifugation of the suspension. The operation of suspending the cell fraction into PBS buffer and subjecting the resulting suspension to centrifugation was repeated three times to wash the cells. […] Upon continued culture, these completely differentiated cells undergo cell death synchronously after about 5 days, the cell death being monitored by a trypan blue exclusion test and a MTT (3-(4,5-dimethylthiazol-2-yl)-2,5-diphenyltetrazolium bromide) test.

[2] = test system: Porcine ovarian granulosa cells (POGC); assay: Test Example 3: PGF2α-induced cell death of terminally differentiated POGC; assay type: cell-based; conditions: Sus scrofa; 3 µM added prior to PGF2α (50 µg/mL); observation after 16 hour; read-out: survival of the cells
From the text: as §1, with “test. […]” for “test.”

POGC [3] = assay: Test Example 4: cell death of POGC in long term serum-free, hormone-free culture; assay type: cell-based, porcine; conditions: Sus scrofa, 168 h, observation at 7 days after the death of cells treated with no test compound, read-out: survival of the cells
From the text: as §1, with “test. […]” for “test.”

POGC [4] = assay: Test Example 5: staurosporine-induced cell death of completely differentiated POGC; assay type: cell-based, porcine; conditions: Sus scrofa; 3 µM added prior to staurosporine (3 nM); observation after 68 hours; read-out: cells alive
From the text: as §1, with “test. […]” for “test.”

undifferentiated POGC [5] = assay: Test Example 6: hydrogen peroxide-induced cell death of undifferentiated POGC; assay type: cell-based, porcine; conditions: Sus scrofa; 3 µM added prior to hydrogen peroxide (100 µm); observation after 24 hours; read-out: cells alive
cerebellar granule cells [6] = assay: Test Example 10: hydrogen peroxide-induced death of cerebellar granule cells; assay type: cell-based, rats; conditions: Rattus norvegicus, read-out: cells alive
Procedure: (§2) According to a known method (A Dissection and Tissue Culture Manual of the Nervous System, p. 211, 1989, Alan R, Liss, Inc.), cerebellar granule cells were isolated from the cerebellum of 7 days old rats and cultured. Namely, after conducting isolation procedures described in the above literature, the resulting cells were resuspended in DMEM containing 10% fetal bovine serum, 25 mM KCl and 2 mM glutamine, and seeded in poly-lysine coated plates. After the cells were cultured in a CO2 incubator for 48 hours according to a conventional method, cytosine-1-β-D(+)-arabinofuranoside (Ara-C) (10 µM) was added thereto, and the cell was continued to culture. The following experiments were conducted with the cells of 7 to 14 days old from the start day of the culture, the cells having completed neurite extension sufficiently. […] Furthermore, experiments were conducted by increasing a concentration of hydrogen peroxide to 300 µM. In the cases that Test Compound 18 (10 µM), Test Compound 19 (10 µM), or Test Compound 20 (10 µM) were added, about 90%, 90%, and 70% of the cells were alive, respectively, on observations after 16 hours.

erythrocytes = assay: Test Example 13: hydrogen peroxide-induced death of erythrocytes; assay type: cell-based; conditions: Homo sapiens, Erythrocyte, read-out: ratios of dead erythrocytes (dark ghost cells)
Procedure: After human blood (2 mL) was centrifuged at 1000 rpm for 5 min, the resulting cell pellets containing erythrocytes were washed three times with a DMEM medium and the cells were resuspended in the same medium (15 mL) (about 5 × 10^8 cells/mL). Ten µL of this suspension was added with 10% FCS/DMEM (10 mL), and the cells were plated in 48 well plates (500 µL/well). When hydrogen peroxide (300 µM) was added to the erythrocyte culture solution and the cells were cultured for 24 hours, all erythrocytes were dead on observations under a light microscopy (all erythrocytes were subjected to shape changes from a bright, round and concave shape into a dark hemolytic ghost through multiple shape changes). On the other hand, Test Compound 14 (30 µM), Test Compound 18 (10 µM), Test Compound 19 (20 µM) or Test Compound 20 (20 µM) was added prior to the hydrogen peroxide addition.

[7] = test system: Primary cultured fibroblasts; assay: Test Example 14: SNP-induced apoptosis of primary cultured fibroblasts; assay type: cell-based, mice; conditions: Mus musculus, Fibroblast, observation after 48 hours, read-out: cells alive
Procedure: Primary cultured fibroblasts were prepared from mice according to a known method (Kinou Saibou no Bunri to Baiyou (Isolation and Culture of Functional Cells), Maruzen, 1987, p. 59). Namely, after removing skin hairs from mice with shaving foam followed by disinfection with a chlorhexidine gluconate solution, tiny skin fragments were isolated. […] After migration of fibroblasts became obvious, the slide glasses and the residual skin fragments were removed, and the culture was continued. […] In the cases that Test Compound 14 (5 µM) or Test Compound 18 (2.5 µM) was added to the present culture system prior to the SNP addition, apoptosis in both cultures was inhibited and more than 95% of cells were alive on an observation after 48 hours.

[8] = test system: monolayer cells derived from the mouse kidneys; assay: Test Example 15: SNP-induced apoptosis of monolayer cells derived from kidneys; assay type: cell-based, mice; conditions: observation after 48 hours, read-out: cells alive
Procedure: Kidneys isolated from mice were dissected into minute pieces in a serum-free DMEM, which were dispersed with trypsin/EDTA treatment. After leaving it for a while, the supernatant was discarded, and the pellet was transferred to a culture plate and cultured in DMEM containing 10% fetal bovine serum in a CO2 incubator according to a conventional manner. After tissues were adhered onto a culture plate and subsequently cell colonies got formed, the tissues were removed and the colonies were subcultured in the same medium. The resulting monolayer cells derived from the mouse kidneys were morphologically different from fibroblasts. […] Then, Test Compound 14 (5 µM) or Test Compound 18 (2.5 µM) was added prior to the SNP addition and the cells were observed.

[9] = test system: Porcine Ovarian Granulosa Cells; assay: Test Example 7: inhibition of SNP-induced apoptosis of undifferentiated POGC; assay type: cell-based; conditions: Sus scrofa; for complete inhibition of apoptosis; SNP 0.5 mM; cells observed after 48 hours; read-out: Minimum effective concentration
undifferentiated POGC [10] = assay: Test Example 8: bilirubin-induced cell death of undifferentiated POGC; assay type: cell-based, porcine; conditions: Sus scrofa, 96 h; 10 µM added prior to bilirubin (30 µg/mL); observation after 4 days; read-out: survival of the cells
4B2 cells = assay: Test Example 9: SNP-induced apoptosis of 4B2 granulosa cell line; assay type: cell-based; conditions: Mus musculus; 10 µM added prior to SNP (0.5 mM); observation after 24 hours; read-out: cells alive
Procedure: Mouse granulosa cells were transfected with SV40 T antigen and cDNA of steroidogenic factor-1 (SF-1/Ad4BP) to establish a cell line, named 4B2. The cell secretes progesterone in response to protein kinase-A. The 4B2 cells were cultured in 48-well culture plates until subconfluency in DMEM containing 10% fetal bovine serum in a CO2 incubator according to a conventional manner. After the medium was switched to DMEM containing 2% fetal bovine serum, SNP (0.5 mM) was added thereto. […] Then, prior to the addition of SNP, Test Compound 13, 14, 17, 20, 24 or 25 (10 µM each) was added to the present medium and observations on cells were made after 24 hours.

cerebellar granule cells [11] = assay: Test Example 11: SNP-induced death of cerebellar granule cells; assay type: cell-based, rats; conditions: Rattus norvegicus; 10 µM added prior to SNP (1.5 µM); observation after 12 hours; read-out: cells alive
cerebellar granule cells [12] = assay: Test Example 12: bilirubin-induced death of cerebellar granule cells; assay type: cell-based, rats; conditions: Rattus norvegicus; 10 µM added prior to bilirubin (100 µg/ml); observation after 18 hours; read-out: cells alive
Procedure: as §2
Neonatal jaundice is known to induce severe brain damages by way of abnormally high concentration of bilirubin in the body. […]

[13] = 10 µM, hydrogen peroxide 300 µM, observation after 16 hours
[14] = 2.5 µM added prior to SNP (0.5 mM)
[15] = 5 µM added prior to SNP (0.5 mM)

CN(C)CCCn1cc(C2=C(c3c[nH]c4ccccc34)C(=O)NC2=O)c2ccccc21 [Compound 18]
viability at 3 µM [1]: > 95%
viability at 3 µM [2]: > 95%
viability at 3 µM (POGC [3]): > 95%
viability at 3 µM (POGC [4]): > 95%
viability at 3 µM (undifferentiated POGC [5]): > 95%
viability at 10 µM (cerebellar granule cells [6]; [13]): ~90%
cytotoxicity at 10 µM (erythrocytes; 24 h): 20%
viability at 2.5 µM [7, 14]: > 95%
viability at 2.5 µM [8, 14]: > 95%

Cc1cccc2c(C3=C(c4c[nH]c5c(C)cccc45)C(=O)N(C)C3=O)c[nH]c12 [Compound 25]
minimal effective concentration [9]: 0.3 µM
viability at 10 µM (undifferentiated POGC [10]): 95%
viability at 10 µM (4B2 cells): > 95%
viability at 10 µM (cerebellar granule cells [6]; 10 µM added prior to hydrogen peroxide (10 µM), observation after 12 hours): > 95%
viability at 10 µM (cerebellar granule cells [11]): > 95%

CC(=O)NCCCn1cc(C2=C(c3c[nH]c4ccccc34)C(=O)N(C)C2=O)c2ccccc21 [Compound 20]
minimal effective concentration [9]: 7 µM
viability at 10 µM (4B2 cells): > 95%
viability at 10 µM (cerebellar granule cells [6]; [13]): ~70%
viability at 10 µM (cerebellar granule cells [11]): > 95%
viability at 10 µM (cerebellar granule cells [12]): ~80%
cytotoxicity at 20 µM (erythrocytes; 20 µM added prior to hydrogen peroxide (300 µM), observation after 24 hours): 10%

CN1C(=O)C(c2c[nH]c3ccccc23)=C(c2c[nH]c3ccccc23)C1=O
viability at 10 µM (undifferentiated POGC [10]): 50%
viability at 10 µM (4B2 cells): > 95%
viability at 10 µM (cerebellar granule cells [11]): > 95%
cytotoxicity at 30 µM (erythrocytes; 30 µM added prior to hydrogen peroxide (300 µM), observation after 24 hours): 20%
viability at 5 µM [7, 15]: > 95%
viability at 5 µM [8, 15]: > 95%
